Data on one compound can be found in US9433663B2, “Mobilization of hematopoietic stem cells” (Children's Hospital Medical Center, priority 2008, dated 2016).

Experiment [1] concerns human CD45^+ hematopoietic cells. Description: mobilization of human CD45+ cells in NOD/SCID-hCB model. Type of experiment: in vivo, NOD/SCID mice xenografted with human CD34^+ hCB cells. Conditions: intravenous injection, by 20 min post administration. The method, then:
(§1) To begin to study potential utility of CASIN in human hematopoietic stem cell mobilization, a series of cellular assays were carried out to determine the effects on human CD34^+ umbilical cord blood cells (HCBs). […] The effects of CASIN on human hematopoietic cell mobilization was therefore tested using a well established preclinical in vivo model (NOD/SCID-Hcb) of human hematopoietic function, where fresh CD34^+ hCB cells were transplanted into sub-lethally irradiated NOD/SCIDs by intrafemoral injection, and repopulated and maintained human hematopoietic reconstitution in the bone marrow of NOD/SCID recipient mice (FIG. 9b, FIG. 11) (Larochelle, A. et al. Nat Med 2, 1329-1337 (1996); Bhatia, M., et al. Proc Natl Acad Sci USA 94, 5320-5325 (1997)). Intravenous injections of CASIN were applied when human cells were well engrafted in the NOD/SCID recipients.
C57BL/6, NOD/SCID, NOD/SCID-SGM3 and NOD/SCIDγC−/− (NOG) were in house bred in the animal barrier facility of Cincinnati Children's Hospital Medical Center (CCHMC) and used at the age of 6-8 weeks old. Cultured N-RasMA93 cells were injected into NOD/SCIDγC−/− mice by tail vein. Freshly thawed CD34^+ hCB cells were transplanted into NOD/SCID mice by intrafemoral injection.

A further experiment addresses T1, Rac1 (Homo sapiens, UniProt P63000).
T1 construct: endogenous in cells; host or cells: human CD34+ umbilical cord blood cells (HCB)
The experiment is described as follows: Rho GTPase effector pulldown in human CD34+ umbilical cord blood cells, Rac1. The class given is cell-based. Conditions: human CD34^+ HCBs. As for the experimental part: as §1
To analyze the effects of CASIN on the formation of active GTP-bound Cdc42, RhoA, and Rac1, effector pulldown assays were carried out as described previously. Cdc42GAP^−/− MEF, LDBM, CD34^+ hCB cells were treated with CASIN at doses of 5-20 μM in parallel with vehicle control for 2 hrs after overnight starvation, and stimulated with cytokines subsequently. […]

In experiment [2] the test system is PIP2 induced F-actin assembly. Conditions: PIP2 induced F-actin assembly in xenopus egg extracts; read-out: IC50 (dose required to inhibit the maximum polymerization rate by 50%); cited from earlier work.
Experiment [3] concerns human CD34^+ umbilical cord blood cells. The experiment is described as follows: flow cytometry of F-actin polymerization in human CD34+ HCB cells. Type of experiment: cell-based. The note with it: human CD34^+ HCBs, SDF-1α induced. As for the experimental part: FIG. 4A. SDF-1α induced F-actin polymerization over time without or with gradient CASIN treatment, determined by MFI using FACS analysis.
as §1

The next experiment has as its target Rho (Homo sapiens, UniProt P61586). Description: nucleotide exchange: Large-induced exchange of mant-GDP with Rho. Type of experiment: biochemical. The source says: For example, even at 10 times the IC50 of Cdc42, a 50% inhibition of the association of mant-GDP with Rac or Rho was not achieved.
The target of the next experiment is Cdc42 (Mus musculus, UniProt P60766). Description: Example 7 effector pull-down in LDBM and HCB cells, Cdc42. Type of experiment: cell-based, murine LDBM and human HCB cells. Details: endogenous in cells; host or cells: murine LDBM cells and human CD34+ HCB cells. As for the experimental part:
To exclude the inhibitory effect of CASIN on other Rac isoforms, Rho GTPases, and Ras, broader effector pull-down experiments are performed on these possible candidates with gradient doses of CASIN in LDBM and HCB cells as previously described. In addition, CASIN has been indicated as a noncovalent and reversible inhibitor in Xenopus egg extract. To confirm it, reversibility is monitored in this set of effector pull-down experiments. Four treatment groups are divided for both LDBM and HCB cells: (1) Serum starvation 20 h; (2) Serum starvation 20 h+growth factors stimulation; (3) Serum starvation 20 h+CASIN treatment (doses: 1, 2.5, 5, and 10 μM) 3 h+growth factor stimulation; (4) Serum starvation 20 h+CASIN treatment (doses: 1, 2.5, 5, and 10 μM) 3 h+wash the cells, and culture for another 3 h for recovery+growth factors stimulation. […] Bound proteins are analyzed by immunoblotting with respective antibodies (BD Biosciences). Furthermore, changes of downstream targets of Cdc42, Rac, and Rho under the four treatment groups are assessed. Phosphorylation status of PAK1, WASP (effectors of Cdc42), WAVE (effector of Rac), and ROCK (effector of Rho) are monitored by western blots using respective antibodies.

The next experiment deals with LT-HSCs. The experiment is described as follows: Example 9 double-labeling of LT-HSC localization in the niche. The class given is in vivo, mice. The note with it: 48 hours or earlier after mobilization. As for the experimental part: These studies use a double-labeling technique to monitor the localization change of LT-HSCs upon mobilization by CASIN.
AMD3100 and G-CSF induced mobilization are used as positive controls, while the control medium is used as a negative control. DBA/2, PeP3b, and C57Bl/6 mice are used in parallel to test the effects of variable mobilization capacity on the movement of LT-HSCs.
Basically, mice are fed BrdU (0.8 mg/ml) in drinking water for 10 days, followed by a chase period of seventy days, after which only the slow cycling LT-HSCs are found to retain the BrdU-label. At the end of the chase period of BrdU labeling, CASIN, AMD3100, G-CSF, or control is administrated on the mice and 3H-TdR is pulse-labeled 1 h before sacrificing the mice. Mice are sacrificed at different time points post administration of mobilizers or control in order to reflect the kinetic changes of HSC localization upon mobilization. And then bone sections are immunochemically stained with anti-BrdU antibody and alkaline phosphatase-labeled secondary IgG, followed by visualization with red substrate. In the meantime, autoradiography is performed to visualize cell incorporated with 3H-TdR. A cell is considered to be double-labeled if it contains greater than 5 silver grains per nucleus over a bright nuclear pattern of red staining.

A value given as a limit tells only on which side of the number the result lay.

Chain of Cdc42 (P60766 1-188 limits assumed): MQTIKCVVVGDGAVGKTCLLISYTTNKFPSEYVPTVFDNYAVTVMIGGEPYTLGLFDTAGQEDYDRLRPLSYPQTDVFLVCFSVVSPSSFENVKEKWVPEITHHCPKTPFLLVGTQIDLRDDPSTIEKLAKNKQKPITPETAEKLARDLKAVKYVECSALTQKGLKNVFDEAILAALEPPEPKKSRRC
Chain of Rho (P61586 whole entry): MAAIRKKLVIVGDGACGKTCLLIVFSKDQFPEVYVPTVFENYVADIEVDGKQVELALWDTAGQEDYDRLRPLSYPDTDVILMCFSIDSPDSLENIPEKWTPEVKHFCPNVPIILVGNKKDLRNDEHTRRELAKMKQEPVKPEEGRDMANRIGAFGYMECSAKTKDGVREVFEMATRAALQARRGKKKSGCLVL

For the compound `OCCNC1CCCc2c1[nH]c1ccc(-c3ccccc3)cc21` (stereo not drawn) [CASIN], in experiment [1], the “human CD45^+ hematopoietic cells mobilized to the peripheral blood” value is recorded as “significant amount of human CD45^+ hematopoietic cells mobilized to the peripheral blood”. The Rac1 activity entry at Rac1 is “without affecting”. Moreover, in experiment [2], the IC50 (usually the concentration needed to halve the response being measured) is 2000 nM. In addition, the F-actin polymerization entry in experiment [3] was “inhibited F-actin polymerization of these human progenitors dose-dependently”. Moreover, the “Large induced nucleotide exchange of mant-GDP with Rho” value at Rho (FIG. 6) is given as “did not affect”. Besides, on Rho (at 10 times the IC50 of Cdc42), the “inhibition of the association of mant-GDP with Rho” value is on record as < 50%. Also, on Cdc42, the “activity of Cdc42” value was “specifically inhibit the activity of Cdc42 in a dose-dependent manner” and the “recovery of Cdc42 activity after wash” value is reported as “recovers 3 h after CASIN is washed away”. Moreover, the “number of BrdU-labeled LT-HSC in bone marrow niche” value with LT-HSCs was “reduced”.
